These results are taken from patent US20130273057A1, “METHODS AND COMPOSITIONS FOR THE TREATMENT AND DIAGNOSIS OF VASCULAR INFLAMMATORY DISORDERS OR ENDOTHELIAL CELL DISORDERS” (Beth Israel Deaconess Medical Center, Inc., priority 2007, published 2013).

Ends that are not written are not given here.

Test [1] relates to EphA2. The experiment in a line: EphA2 tyrosine phosphorylation in HUVECs (immunoprecipitation/4G10 western blot), Src dependence. Type of test: cell-based, human. On the procedure: Confluent HUVECs were pretreated with either DMSO or PP2 for […] and then stimulated with 1 U/ml thrombin or […] Ephrin A1-FC. EphA2 was immunoprecipitated and tyrosine phosphorylation was detected by immunoblot using an anti-phophotyrosine antibody (top panel). The blot was stripped and reblotted with the EphA2 antibody for loading (bottom panel). Representative data from 3 independent experiments are shown.
Methods: Mouse EphrinA1 in a form of FC fusion was purchased from R and D Systems. Pharmacological agents PP2 was used to examine the role of Src in EphA2 phosphorylation. Confluent HUVECs were pretreated with PP2 (2 μM) or DMSO for 1 hour, followed by a 10-min treatment with sodium orthovandate (1 mM). Cells were then stimulated for 30 mins with either 1 U/ml thrombin or 250 ng/ml […]. HUVECs were lysed in RIPA buffer. Clarified lysates were immunoprecipitated with 2 μg of a polyclonal anti human EphA2 antibody (Santa Cruz) and Protein A/G Plus. Tyrosine phosphorylation and EphA2 were detected using the 4G10 and the EphA2 antibody (Santa Cruz), respectively.
On the technique in general: A western blot detects proteins with antibodies after separation by electrophoresis.

The subject of test [2] is EphA2. The experiment in a line: EphA2 tyrosine phosphorylation in HUVECs stimulated with PAR agonistic peptides. It is filed as cell-based, human. As to conditions: peptides at 20 μM as stimulants. On the procedure: FIG. 37 is an immunoblot showing PAR-1 activates EphA2. Confluent HUVECs were stimulated with PAR agonistic peptides TFLLR-NH2 (PAR-1) (SEQ ID NO: 11), RLLFT-NH2 (negative control for PAR-1) (SEQ ID NO: 12), SLIGKV-NH2 (PAR-2) (SEQ ID NO: 13), GYPGKF-NH2 (PAR-4) (SEQ ID NO: 14), and thrombin. Tyrosine phosphorylation of EphA2 was determined by western blot.
Methods: HUVECs were prepared and stimulated as described in above except that the following peptides at 20 μM were used as stimulants: TFLLR-NH2 (PAR-1; SEQ ID NO: 11), RLLFT-NH2 (negative control for PAR-1; SEQ ID NO: 12), SLIGKV-NH2 (PAR-2; SEQ ID NO: 13), and GYPGKF-NH2 (PAR-4; SEQ ID NO: 14).

The target of another test is T1, thrombin (Homo sapiens, UniProt P00734).
T1 construct: tissue Calbiochem 527420; host or cells: human plasma added to HUVEC monolayers
The experiment in a line: In vitro thrombin activation colorimetric assay, HUVECs expressing Tie-1 endodomain with human plasma and chromogenic thrombin substrate. Type of test: cell-based. As to conditions: hirudin 100 U/ml; HUVECs infected with Tie-1 endodomain adenovirus; absorbance at 405 nm. On the procedure:
HUVECs were either expressing GFP or Tie-1 endodomain. Whole human plasma supplemented with an excess chromogenic thrombin substrate (sarcosine-Pro-Arg-pNA) (Duncan, Bowie et al., Clin Chem 31: 853-855, (1985)) was added to HUVECs. Cleavage carboxyl-terminal to the arginine residue by thrombin releases […], which can be monitored by absorbance at 405 nm.
Methods: HUVECs were grown to confluency in a 12-well plate. Cells were either uninfected, infected with control GFP adenovirus, or Tie-1 endodomain adenovirus. Next day, medium was changed to fresh full EGM2-MV. 72-hr post infection, cells were washed with EBM2 basal medium (without phenol red), and 0.5 ml of assay medium [EBM2 basal medium (without phenol red)/10% human plasma (Calbiochem 527420)/200 μM chromogenic thrombin substrate (Calbiochem 539518)] was added. Hirudin (Calbiochem 377853, 100 U/ml) was added to one set of cells infected with Tie-1 endodomain. The assay was quenched by the addition of aprotinin (Sigma A1154, 5.6 U/ml). Absorbance at 405 nm was measured using a spectrophotometer and used as an indicator of thrombin activity. […]
Results: We used a colorimetric assay to determine whether expression of Tie-1 endodomain could induce activation of thrombin in vitro. […] Thrombin activation was detected by an increase in absorbance of the cleaved thrombin substrate ([…]) at 405 nm. […]

Test [3] relates to stenosis after balloon angioplasty. As to conditions: rabbit, rat, and pig models; cited from earlier work.
The subject of the next test is ICAM-1. The experiment in a line: Thrombin-induced ICAM-1 upregulation in HUVECs, western blot. It is filed as cell-based, human. An excerpt: FIGS. 33A-33B show thrombin induction of ICAM-1 upregulation in HUVECs is dependent on EphA2. […] Representative data from 3 experiments are shown. FIG. 33B is a graph showing densitometric quantification of the results in […] normalized for fold increase in ICAM-1 expression. Results were reported as fold-increase in ICAM-1 expression relative to unstimulated controls. Data are mean±s.d. of three experiments; * p<0.002.
FIGS. 34A-34B show overexpression of mouse EphA2 rescues thrombin-induced ICAM-1 upregulation in HUVECs with endogenous EphA2 knocked down. […] The cells were treated with human EphA2 specific siRNA as indicated and ICAM-1 upregulation was induced using 1 U/ml thrombin for 6 hours (T). Representative data from 4 experiments are shown. […] “−” and “+” represent without or with thrombin stimulation (1 U/ml, 6 hr). Representative results from two experiments are shown.
Methods: Two validated Stealth siRNA duplexes specific to human EphA2 and a negative control duplexes were purchased from Invitrogen (EphA2 siRNA, catalog number: 12938-022, sequence: 5′-gca agg aag ugg uac ugc ugg acu u-3′ (siRNA #1, SEQ NO ID 33) and control siRNA, catalog number 12935-300, sequence: 5-ggg acc uga ugc aga aca uca uga a-3 (siRNA #2, SEQ NO ID 34)). […] ICAM-1 protein expression were detected by western blots using an anti ICAM-1 antibodies. […]

The test system of test [4] is Tie-1-induced inflammation in HUVECs. The experiment in a line: p38 inhibition study, real-time PCR in HUVECs infected with Tie-1 adenovirus. It is filed as cell-based, human. The following applies: 48 hours post infection. An excerpt:
FIG. 28 is a graph showing that Tie-1 induced endothelial inflammation is p38 dependent.
Adenovirus construction: For adenovirus production, we chose the AdEasy adenoviral expression system due to its ease of use and ability to generate high titer virus. Coding sequence of mouse Tie-1 excluding the endogenous leader sequence was amplified from cDNA prepared from mouse lung tissue. The following expression cassette was constructed: IgK leader sequence, a Flag epitope tag sequence, and the coding region of mouse Tie-1. This cassette was subcloned into the shuttle vector pAdTrack, which contains two CMV promoters to express the gene of interest and the green fluorescent protein (GFP) independently. After homologous recombination in the E. coli strain BJ5183 (Stratagene), the recombined pAdeasy DNA (PacI-cut) was used to transfect 293A cells (Invitrogen). After several rounds of amplification, the virus was purified using the Ad-Pure Adenoviral Purification Kit (BioVintage) and tittered using 293A as the host. Immediately prior to use, the virus was desalted and buffer-exchanged into endothelial growth medium using a spin column (Pierce). Adenoviral infection: Human umbilical vein endothelial cells (HUVECs) and human aortic endothelial cells (HAECs) were purchased from Cambrex and maintained as recommended by the manufacturer. To overexpress Tie-1, 200,000 endothelial cells were plated in one well of a […]. After overnight incubation, adenovirus harboring the Tie-1 expression cassette was added to the endothelial cells at MOI of 10:1. An “empty virus” expressing only GFP was used as a control. Seventeen hours later, medium was replaced with fresh medium. Cells were maintained and processed at the desired time points for the experiments described below. […] Lysates were immunoprecipitated with an anti-Tiel antibody (Santa Cruz, SC-342). Western blotting with anti phosphotyrosine antibody (4G10, Upstate) was used to determine the phosphorylation status of Tie-1. The membrane was stripped and reblotted with the anti-Tiel antibody. A portion of the lysates was immunoprecipitated with 4G10. Tyrosine phosphorylation of Tie-1 was confirmed by western blotting with the anti-Tiel antibody using these 4G10 immunoprecipitates. Antibody array experiment: HUVECs were infected as described. Forty-eight hours later, supernatants from Tie-1 expressing or GFP expressing cells were collected. After brief centrifugation to remove cell debris, the supernatants were spun through a 0.22-μm cellulose acetate filter (Spin-X, Costar). Cytokine and chemokine contents in the conditioned media were screened using the RayBio Human Inflammation Antibody Array 3.1(RayBiotech). Real-time polymerase chain reactions (PCR)—Total RNAs from endothelial cells were isolated by the RNAeasy Mini Kit (Qiagen) and used as templates in oligo-dT primed reverse transcription using the Superscript III reverse transcriptase (Invitrogen). Real-time PCRs were performed using the QuantiTect Probe PCR Kit (Qiagen) with the 7500 Real Time PCR System (Applied Biosystems). Gene of interest and GAPDH were multiplexed for normalization as described (Dupuy et al., Exp. Cell Res. 185: 363-372., (1989)). The following real time PCR probes were purchased from Applied Biosystems and used in this study: CCL2 5′-[…]-3′(SEQ ID NO: 27); VCAM-1: 5′-[…]-3 (SEQ ID NO: 28)′; ICAM: 5′-[…]-3′(SEQ ID NO: 29); CXCL10: 5′-[…]-3′(SEQ ID NO: 30); E-selectin: 5′-[…]-3′(SEQ ID NO: 31); IL-6: 5′-[…]-3′ (SEQ ID NO: 32). ELISA—HUVECs were infected as described above. Supernatants were collected from Tie-1 expressing or GFP expressing cells 70 hours post infection. The ELISA kit for human IL-6 was purchased from R and D Systems. Western blots—Endothelial cell lysates were prepared in denaturing SDS-PAGE loading buffer, sonicated, heated at 80° C. for 5 mins, and fractionated on SDS-PAGE. […]
For orientation: Real-time PCR tracks product formation cycle by cycle.

In the case of `CC(C)(C)n1nc(-c2ccc(Cl)cc2)c2c(N)ncnc21` [PP2], the “tyrosine phosphorylation of EphA2 by EphrinA1, sensitivity to PP2” value with EphA2 [1] (PP2 2 μM 1 hour, 250 ng/ml EphrinA1-FC 30 mins) is on record as “insensitive”. Moreover, the “thrombin-induced EphA2 tyrosine phosphorylation” value in the test with EphA2 [1] (PP2 2 μM 1 hour, 1 U/ml thrombin 30 mins) is reported as “completely abrogated”.

Take RLLFT-NH2: the “EphA2 tyrosine phosphorylation (transactivation) in HUVECs” value in the test on EphA2 [2] was “failed to induce”.

As to hirudin, at thrombin, the “cleavage of the chromogenic thrombin substrate” value is listed as “completely blocked”. Moreover, in test [3], the “development of stenosis after balloon angioplasty” value is given as “reduces”.

In the case of GYPGKF-NH2 [PAR-4 specific agonist], the “EphA2 tyrosine phosphorylation (transactivation) in HUVECs” value in the test on EphA2 [2] was “failed to induce”.

As to “soluble EphA2: soluble EphA2 added in excess during thrombin stimulation”, in the test on ICAM-1 (soluble EphA2 at concentrations up to 1 μg/ml, thrombin 1 U/ml, 6 hr), the “ICAM-1 expression induced by thrombin, block by co-incubation” value was “failed to block”.

On to `C[S+]([O-])c1ccc(-c2nc(-c3ccncc3)c(-c3ccc(F)cc3)[nH]2)cc1` (centres unmarked) [SB-203580], for which, in test [4], the “Tie-1-induced CCL2 upregulation” value is “Significant inhibition”, the “Tie-1-induced ICAM-1 upregulation” value was “Significant inhibition”, the “Tie-1-induced upregulation of E-selectin mRNA” value is recorded as “almost completely blocked” and the “Tie-1-induced upregulation of IL-6 mRNA” value is given as “almost completely blocked”. In addition, in test [4], the “Tie-1-induced upregulation of IP-10 mRNA” value was “almost completely blocked” and the “Tie-1-induced upregulation of VCAM-1 mRNA” value is “almost completely blocked”.

Take SLIGKV-NH2 [PAR-2 specific agonist]: the “EphA2 tyrosine phosphorylation (transactivation) in HUVECs” value in the test on EphA2 [2] is “failed to induce”.

As for “TFLLR-NH2 [PAR-1 specific agonistic peptide]”, the “EphA2 tyrosine phosphorylation (transactivation) in HUVECs” value in the test on EphA2 [2] is “recapitulated EphA2 transactivation”.

B1: EphrinA1-FC: Mouse EphrinA1 in a form of FC fusion, R and D Systems (protein)
chain: DRHIVFWNSSNPKFREEDYTVHVQLNDYLDIICPHYEDDSVADAAMERYTLYMVEHQEYVACQPQSKDQVRWNCNRPSAKHGPEKLSEKFQRFTPFILGKEFKEGHSYYYISKPIYHQESQCLKLKVTVNGKITHNPQAHVNPQEKRLQADDPEVQVLHSIGYS
modifications: left off: a dimerising Fc or GST
notes: Mouse EphrinA1 in a form of FC fusion, R and D Systems
Regarding B1, the “stimulation of ICAM-1 expression” value in the test with ICAM-1 (EphrinA1-FC up to 10 μg/ml, no thrombin) was “did not stimulate”. In addition, in the test on EphA2 [1] (FC-fusion protein, 250 ng/ml, 30 mins), the “activation of EphA2 in endothelial cells” value is reported as “induced significant activation”.
